The values that follow come from patent US20010006961A1, “METHOD FOR IMPROVING FRUIT YIELDS FROM BANANA PLANTS” (priority 1995, published 2001).

In experiment [1] the test system is banana plants. Kind of experiment: In vivo test of application by injection into the growing pseudostem (Example 3). The note with it: 6 kg/ha (3 g per plant) injected into pseudostem 1 month before flowering; harvest 4 months later; control 28.3 kg. The method, then:
Example 3: In vivo test of the application of a composition comprising fosetyl-Al by injection into the growing pseudostem:
The test is carried out on a plantation of banana plants which have reached a stage of regular fruit production. This plantation is furthermore treated periodically throughout the duration of the test by means of a conventional preventive treatment against various fungal diseases, as well as against harmful insects and nematodes, which treatment is known to have no effect of the type of those observed below with fosetyl-Al.
Fosetyl-Al is injected into the pseudostem of the growing banana plants, in the proportion of 6 kg/ha (i.e. 3 g of fosetyl-Al per plant), 1 month before flowering.
The fruits are harvested 4 months later. The average weight of the bunch of bananas is 31.4 kg. The average weight of a bunch of bananas corresponding to the control test (untreated banana plants) is 28.3 kg.

Experiment [2] has as its system banana plants. The experiment is described as follows: In vivo test on a banana plantation on a soil of different nature, treatment carried out with an aeroplane (Example 2). The settings on record: applied by aeroplane, control 37.4 kg. The source says:
Example 2: In vivo test of a composition comprising fosetyl-Al on a banana plantation:
Example 1 is repeated, a plantation situated on a soil of different nature being treated and the treatment being carried out with an aeroplane. The fosetyl-Al doses applied are shown in the table below, along with the average banana bunch weights obtained.

Experiment [3] concerns banana plants. The experiment is described as follows: In vivo test on a banana plantation, fosetyl-Al wettable powder applied with a knapsack sprayer (Example 1). The method, then:
Example 1: In viva test of a composition comprising fosetyl-Al on a banana plantation:
The test is carried out on a plantation of banana plants which have reached a stage of regular fruit production. This plantation is furthermore treated periodically throughout the duration of the test by means of a conventional protective treatment against various fungal diseases, as well as against harmful insects and nematodes, which treatment is known to have no effect of the type of those observed below with fosetyl-Al.
The duration of the test is 2 years.
At the beginning of the first year, treatment with fosetyl-Al is carried out. For this, use is made of a wettable powder formulation of fosetyl-Al diluted in water before use, which is applied by means of a knapsack sprayer. The application dose is 6.4 kg of fosetyl-Al per hectare. This application of fosetyl-Al is repeated every 3 months throughout the duration of the test.
The average weight of a bunch of bananas harvested per plant is measured. The mean value of this weight, during the 2nd year of the test, is equal to 39.8 kg.
In comparison, a control test was carried out, in which there was no application of fosetyl-Al, the protocol otherwise being identical. This test gave 38.4 kg as the average value of the weight of a bunch of bananas harvested per plant, measured under the same conditions as above.

For the compound `CCO[PH](=O)[O-].CCO[PH](=O)[O-].CCO[PH](=O)[O-].[Al+3]` [fosetyl-Al, aluminium tris(O-ethyl phosphonate)], the “average weight of the bunch of bananas” value in experiment [1] is listed as 31.4 kg. Moreover, the “Average weight of a bunch” value in experiment [2] (fosetyl-Al dose 3.2 kg/ha) came to 38.9 kg; in experiment [2] (fosetyl-Al dose 6.4 kg/ha) it was 39.7 kg. Besides, the “average weight of a bunch of bananas harvested per plant” value in experiment [3] (6.4 kg fosetyl-Al per hectare, sprayed every 3 months, mean value during 2nd year of the test, control 38.4 kg) worked out at 39.8 kg. Also, in experiment [3] (6.4 kg/ha every 3 months, 39.8 kg vs control 38.4 kg), the “difference in average bunch weight versus control, relative value” came to 5%. Also, the “additional amount of fruit” value in experiment [3] (in the case where the yield of the banana plantation is 40 tonnes/hectare of bananas) is reported as ~2 tonnes.
